Measurements as given in patent publication US20160177395A1, “BIOMARKERS FOR THE PREDICTION OF RENAL INJURY” (priority 2007, published 2016).
Several values for one entry are separate records, joined by “and”; a condition that tells them apart may be missing. Equal values may be shown once. Entries after “also recorded” stand apart in the source; their conditions may differ.

How the values were obtained:
[1] = test system: kidney tissues of treated or untreated rats; test: Real-time qRT-PCR of marker transcripts in kidney tissue panel, discovery stage (Table 22); format: in vivo, rat; design: AI502869_DB71_seg0 normalized Real Time PCR expression: unit not given beside the values; conditions: rat kidney
How it was run: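 Rat kidney RNA, DNase-treated until PCR-negative, reverse transcribed with SuperscriptII; SYBR Green real-time PCR, 40 cycles, undetected samples set to Ct 41. Relative quantity from efficiency^-Ct (standard-curve efficiency), normalized to the geometric mean of four median-scaled housekeeping genes, then multiplied by a constant factor.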

[2] = test system: Sprague-Dawley Crl:CD(SD) rats; test: Rat toxicity study, single, 5-day and 28-day treatment (clinical observation, clinical pathology, autopsy, organ weights, histopathology); conditions: for Organ weight: compared with controls;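 on all read-outs here: control rats received saline intraperitoneally, and the organs examined were adrenals, brain, kidneys, liver, spleen and thymus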
Experimental: Control animals were treated intraperitoneal with saline.
Randomization and group allocation: prior to treatment, the animals were assigned to the experimental groups based on their body weight. Mean body weight of each group at randomization was not deviate±20% of the mean population weight. Males and females were randomized separately. For the randomization, a computer program was used.
The day before autopsy, urinalysis was performed and blood samples were taken for hematology and clinical chemistry examinations.
On the day of autopsy the animals were anaesthetized with isoflurane, blood was collected for PBMC isolation then subjected to autopsy. Tissues and organs (adrenals, brain, kidneys, liver, spleen and thymus) were weighed and subjected to gross pathological and histopathological examinations.

[3] = day1, individual animals (F and M)
[4] = day5, individual animals (F and M)
[5] = day28, individual animals (F and M)
[6] = 28-day treatment, male and female rats

For Gentamycin, the “W64472_DB81_seg2 normalized Real Time PCR” value [1, 3] was 0.63 and 0.45 and 0.61 and 0.4 and 0.54 (2×), the “W83813_DB81_seg27 normalized Real Time PCR” value [1, 3] was 0.84 and 0.79 and 0.78 and 0.53 and 0.58 and 0.71 and the “AA686189_DB71_seg6 normalized Real Time PCR expression” value ([1]; day5, individual animals) was 0.64 and 0.72 and 1.21 and 0.81 and 0.83 and 0.75. The “AA799594_DB71_seg0 normalized Real Time PCR expression” value ([1]; day5, individual animals) was 0.99 and 0.89 (2×) and 1.52 and 0.56 and 1.04, the “AA964541_DB71_seg0 normalized Real Time PCR expression” value ([1]; day5, individual animals) was 0.86 and 0.58 and 0.91 and 0.76 and 0.87 and the “AI045075_DB71_seg6 normalized Real Time PCR expression” value ([1]; day5, individual animals) was 0.76 and 1.04 (2×) and 0.62 and 1.1 and 0. For the same substance, the “AI454051_DB71_seg0 normalized Real Time PCR expression” value ([1]; day5, individual animals) was 0.63 (2×) and 1.04 and 1.19 and 0.8 and 0.82, the “AI502869_DB71_seg0 normalized Real Time PCR expression” value ([1]; day5, individual animals) was 0.73 and 0.62 and 0.96 and 0.51 and 0.43 and 0.53 and the “AW919147_DB71_seg0 normalized Real Time PCR expression” value ([1]; day5, individual animals) was 0.86 and 0.88 and 0.95 and 0.71 and 0.79 and 0.78. The “BI293562_DB71_seg2 normalized Real Time PCR expression” value ([1]; day5, individual animals) was 0.95 and 0.76 and 2.8 and 2.32 and 1.61 and 0.93, the “H31045_DB71_seg5 normalized Real Time PCR expression” value ([1]; day5, individual animals) was 0.52 and 1.01 and 0.4 and 1.57 and 1.47 and 0.33 and the “H31799_DB71_seg23 normalized Real Time PCR expression” value ([1]; day5, individual animals) was 0.92 and 0.91 and 1.36 and 1.08 and 0.76 and 0.88. For the same substance, the “H31883_DB71_seg13 normalized Real Time PCR expression” value ([1]; day5, individual animals) was 0.73 and 0.55 and 0.91 and 1.01 and 0.7 and 0.65, the “H33998_DB71_seg19 normalized Real Time PCR” value [1, 4] was 1.9 and 1.5 and 2.19 and 1.91 and 0.83 and 1.16 and the “MUSCYCG1R_DB81_seg15-17 normalized Real Time PCR” value [1, 4] was 1.51 (2×) and 1.61 and 0.95 and 0.79 and 1.02. The “RATLRFI_DB71_seg9 normalized Real Time PCR” value [1, 4] was 0.48 and 0.43 and 4.15 and 1.35 and 1.13 and 0.59, the “RATRAB13X_DB71_seg11-13 normalized Real Time PCR” value [1, 4] was 0.9 (2×) and 0.82 and 1.12 and 0.61 and 0.8 and the “RNU24174_DB71_seg8 normalized Real Time PCR” value [1, 4] was 0.31 and 0.22 and 0.81 and 0.65 and 0.36 and 0.4. For the same substance, the “W41270_DB81_seg11 normalized Real Time PCR” value [1, 4] was 2.04 and 1.34 and 2.42 and 2.03 and 1.08 and 1.2, the “W64472_DB81_seg2 normalized Real Time PCR” value [1, 4] was 1.5 and 1.2 and 0.94 and 1.95 and 1.62 and 1.61 and the “W83813_DB81_seg27 normalized Real Time PCR” value [1, 4] was 2.07 and 1.82 and 1.7 and 1.35 and 0.88 and 1.4. The “AA686189_DB71_seg6 normalized Real Time PCR expression” value ([1]; day28, individual animals) was 2.7 and 2.09 and 2.48 and 1.98 and 1.23 and 2.51, the “AA799594_DB71_seg0 normalized Real Time PCR expression” value ([1]; day28, individual animals) was 0.84 and 0.8 and 0.89 and 0.54 and 0.5 and 0.67 and the “AA964541_DB71_seg0 normalized Real Time PCR expression” value ([1]; day28, individual animals) was 3.19 and 1.77 and 2.16 and 3.33 and 1.45 and 3.18. The “AI045075_DB71_seg6 normalized Real Time PCR expression” value ([1]; day28, individual animals) was 2.09 and 3.14 and 1.74 and 1.25 and 1.99 and 1.29, the “AI454051_DB71_seg0 normalized Real Time PCR expression” value ([1]; day28, individual animals) was 0.67 and 1 and 0.95 and 1.14 and 0.64 and 0.71 and the “AI502869_DB71_seg0 normalized Real Time PCR expression” value ([1]; day28, individual animals) was 0.66 and 0.74 and 0.73 and 1.36 and 0.92 and 0.77. The “AW919147_DB71_seg0 normalized Real Time PCR expression” value ([1]; day28, individual animals) was 0.73 and 1.12 and 0.89 and 0.75 and 0.57 and 0.93, the “BI293562_DB71_seg2 normalized Real Time PCR expression” value ([1]; day28, individual animals) was 2.01 and 1.19 and 0.81 and 0.63 and 0.72 and 1.16 and the “H31045_DB71_seg5 normalized Real Time PCR expression” value ([1]; day28, individual animals) was 0.79 and 0.84 and 0.67 and 1.11 and 4.65 and 0.45. The “H31799_DB71_seg23 normalized Real Time PCR expression” value ([1]; day28, individual animals) was 0.88 and 1.05 and 1.17 (2×) and 0.37, the “H31883_DB71_seg13 normalized Real Time PCR expression” value ([1]; day28, individual animals) was 0.88 and 0.98 and 0.96 and 1.05 and 0.64 and 0.8 and the “H33998_DB71_seg19 normalized Real Time PCR” value [1, 5] was 0.4 (2×) and 0.7 and 0.56 and 0.49 and 0.42. For the same substance, the “MUSCYCG1R_DB81_seg15-17 normalized Real Time PCR” value [1, 5] was 0.69 and 0.62 and 0.57 and 0.65 and 0.56 and 0.54, the “RATLRFI_DB71_seg9 normalized Real Time PCR” value [1, 5] was 5.63 and 4.17 and 2.43 and 2.56 and 1.59 and 2.51 and the “RATRAB13X_DB71_seg11-13 normalized Real Time PCR” value [1, 5] was 0.83 and 1.12 and 0.88 and 1.17 and 0.76 and 1.22. The “RNU24174_DB71_seg8 normalized Real Time PCR” value [1, 5] was 1.53 and 1.2 and 0.59 and 1.91 and 0.69 and 0.65, the “W41270_DB81_seg11 normalized Real Time PCR” value [1, 5] was 0.94 and 0.81 (2×) and 1.42 and 0.75 and 0.84 and the “W64472_DB81_seg2 normalized Real Time PCR” value [1, 5] was 0.92 and 0.66 and 0.54 and 1.49 and 0.84 and 0.81. The “W83813_DB81_seg27 normalized Real Time PCR” value [1, 5] was 0.45 and 0.34 and 0.62 and 0.78 and 0.54 and 0.38, the Autopsy findings ([2]; 5-day treatment) was “No effect” and the Body weight gain ([2]; 5-day treatment) was “Body weight gain was decreased in females”. The Clinical pathology ([2]; 5-day treatment) was “elevated urea nitrogen levels found in females; also recorded: ♀: ↑↑BUN”, the “Histopathology / renal damage” value ([2]; 5-day treatment) was “No nephrotoxicity was observed; also recorded: No renal damage was found at histopathological examination” and the Organ weight ([2]; 5-day treatment) was “No effect”. For the same substance, the “Body weight and body weight gain” value ([2]; 28-day treatment) was “affected body weight gain of animals in both sexes; also recorded: Effect on body weight and body weight gain was seen”, the Histopathology / nephrotoxicity ([2]; 28-day treatment) was “Signs of nephrotoxicity occurred in all animals of both sexes; also recorded: nephrotoxic effect of the test item was confirmed by histopathology; also recorded: basophilia in the cortex” and the “Decreasing order of nephrotoxicity at histopathological examination” value ([2]; 28-day treatment, females) was “Cisplatin, Cadmium chloride, Gentamycin, Doxorubicin and Tobramycin in females”. The Autopsy findings [2, 6] was “enlarged and discolored kidneys were observed in males; also recorded: Alterations were found in the kidneys; also recorded: ♂♀: ↑↑, pale”, the Organ weight [2, 6] was “Kidney weight increased in both sexes and Increased weights of kidneys in males and Higher weights of kidneys in females and Weights of spleen were higher in Gentamycin treated males and Decreased thymus weights were found in Gentamycin and Tobramycin treated males and ↑↑” and the “Decreasing order of nephrotoxicity at histopathological examination” value ([2]; 28-day treatment, males) was “Cisplatin, Gentamycin, Tobramycin and Doxorubicin in males”.
